Patent US20230024438A1, “INHIBITORS OF HIF-2ALPHA” (ARCUS BIOSCIENCES, INC., priority 2019, published 2023)

Assays:
HIF-2α = target: T1, HIF-2α (Homo sapiens, UniProt Q99814); test: HIF-2α Luciferase Reporter Assay; type: cell-based; conditions: HIF-Luc-786-0 cells, 20 hours incubation, luciferase activity; read-out: HIF-2α Luciferase Assay
T1 construct: endogenous in cells; host or cells: 786-O cells (ATCC CRL-1932) stably carrying the Cignal Lenti HIF Luc Reporter
Description: Stable cell lines were generated by transducing 786-O cells (ATCC, CRL-1932) with Cignal Lenti HIF Luc Reporter lentivirus (CLS-007L, Qiagen) according to the manufacturer's guidelines. In brief, 0.3×10^6 786-0 cells were transduced with lentivirus at a Multiplicity of Infection (MOI) of 25 for 24 hours. After transduction, cells were replenished with fresh RPMI 1640 Medium (Cat. No. 11875085, Thermo Fisher,) supplemented with 10% FBS (Cat. No. A3160502, Gibco), 2 mM GlutaMax (Cat. No. 35050-061, Invitrogen) and 100 units of penicillin and 100 μg of streptomycin/mL (Cat. No 15070063, Thermo Fisher) for another 24 hours. Antibiotic selection was performed in cell media containing 4 μg/mL of Puromycin. After 7 days of antibiotic selection, stable pools of surviving cells were expanded and used in a luciferase reporter assay.
On day one, 20 uL of HIF-Luc-786-0 cells in OptiMem (Cat. No. 31985088, Thermo Fisher) were seeded into each well of a 384 well white opaque plate (Corning 3570) and incubated at 37° C. and 5% CO2. Twenty microliters of 2× test compounds in OptiMem were added to cells after 4 hours of incubation. Final assay conditions comprised 20,000 cells per well in 1% DMSO with test compound concentrations ranging from 50 uM to 0 uM. After 20 hours incubation at 37° C. and 5% CO2, luciferase activity was determined using ONE-Glo Luciferase Assay Reagent (E6110, Promega) following the manufacture's recommended procedure. Briefly, 40 uL of ONE-Glo luciferase reagents were added to each well and luciferase signals were measured using an Envision 2102 Multilabel Reader. Percentage maximum activity in each test well was calculated based on DMSO (maximum activity) and no cell control wells (baseline activity). The IC50 values of the test compounds were determined from compound dose response curves fitted using a standard four parameter fit equation.

[1] = target: T2, Histidine tagged HIF-2α protein containing PAS-B domain (240-350) (Homo sapiens, UniProt Q99814); test: HIF-2α Scintillation Proximity Assay (SPA); type: binding; conditions: 50 nM HIF-2α protein, 25 nM radiolabeled tracer; read-out: HIF-2α Scintillation Proximity Assay
T2 construct: Histidine tagged HIF-2α protein containing PAS-B domain (240-350) was prepared and purified in house; made in house
T2 sequence (Q99814 240-350): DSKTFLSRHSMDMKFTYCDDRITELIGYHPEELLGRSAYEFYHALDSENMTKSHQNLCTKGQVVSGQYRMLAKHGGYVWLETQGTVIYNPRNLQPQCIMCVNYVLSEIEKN
Description: Tritium labeled compound N-(3-chlorophenyl)-4-nitro-2,1,3-benzoxadiazol-5-amine was obtained from American Radiolabeled Chemicals Inc. and copper chelate PVT SPA beads were from PerkinElmer (Cat #RPNQ0095). Histidine tagged HIF-2α protein containing PAS-B domain (240-350) was prepared and purified in house.
Compounds solubilized in DMSO were dispensed into a white 384-well polystyrene non-binding flat clear bottom plate (Greiner Bio-One, Cat #781903) using an HP D300 dispenser. Ten microliters of HIS-tagged HIF-2α protein in buffer (25 mM Tris-HCl, pH 7.4, 150 mM NaCl, 0.15% BSA and 0.001% Tween 20) was added to the compound wells and allowed to incubate for 1 hour at room temperature. Ten microliters of SPA bead mix were added to the wells and incubated for an additional 45 minutes, followed by 10 ul of ^3H-tracer solution. Final assay conditions comprised 50 nM HIF-2α protein, 25 nM radiolabeled tracer and 3 ug beads per well with compounds in 2% DMSO. The plate was read using a MicroBeta Microplate Counter (PerkinElmer) for luminescence detection. The IC50 values of the test compounds were determined from compound dose response curves fitted using a standard four parameter fit equation and are reported in Table 1.

T1 sequence (Q99814 whole entry): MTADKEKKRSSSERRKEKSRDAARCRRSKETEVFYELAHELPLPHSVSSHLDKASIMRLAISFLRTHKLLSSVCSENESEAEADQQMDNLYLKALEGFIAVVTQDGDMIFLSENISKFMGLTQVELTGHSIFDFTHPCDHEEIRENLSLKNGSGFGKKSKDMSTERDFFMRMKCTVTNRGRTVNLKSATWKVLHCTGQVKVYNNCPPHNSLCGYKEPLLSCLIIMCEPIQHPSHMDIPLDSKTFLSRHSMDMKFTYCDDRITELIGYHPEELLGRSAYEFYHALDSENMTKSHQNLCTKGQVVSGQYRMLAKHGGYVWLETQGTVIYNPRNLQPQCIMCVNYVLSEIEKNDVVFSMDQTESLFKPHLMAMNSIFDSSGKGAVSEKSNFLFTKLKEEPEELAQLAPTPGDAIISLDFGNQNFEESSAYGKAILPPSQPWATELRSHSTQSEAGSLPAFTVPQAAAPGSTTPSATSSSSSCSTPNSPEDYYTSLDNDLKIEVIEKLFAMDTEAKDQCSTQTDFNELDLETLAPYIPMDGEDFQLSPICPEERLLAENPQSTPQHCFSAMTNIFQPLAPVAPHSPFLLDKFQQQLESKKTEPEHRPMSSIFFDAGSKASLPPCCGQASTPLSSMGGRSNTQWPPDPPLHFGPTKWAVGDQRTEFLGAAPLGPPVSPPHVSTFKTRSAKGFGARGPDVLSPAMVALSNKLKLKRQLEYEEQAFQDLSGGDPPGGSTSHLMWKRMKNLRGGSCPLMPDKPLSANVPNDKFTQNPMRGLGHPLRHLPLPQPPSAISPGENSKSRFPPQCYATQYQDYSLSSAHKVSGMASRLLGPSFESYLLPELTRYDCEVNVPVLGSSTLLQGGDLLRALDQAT

Row | SMILES | IC50 (HIF-2α) [µM] | IC50 [1] [µM]
1 | N#Cc1ccc(F)c(Oc2ccc(S(=O)(=O)C(F)(F)F)c3[nH]ncc23)c1 [Example 44, 4-Fluoro-3-[(7-trifluoromethanesulfonyl-1H-indazol-4-yl)oxy]benzonitrile] | > 10 | 
2 | O=S(=O)(c1ccc(NCc2ccccc2F)c2cn[nH]c12)C(F)(F)F [Example 50, N-[(2-Fluorophenyl)methyl]-7-(trifluoromethylsulfonyl)-1H-indazol-4-amine] | > 10 | > 10
3 | N#Cc1cc(F)cc(Nc2ccc(C(F)(F)F)c3[nH]ncc23)c1 [Example 14, 3-Fluoro-5-[7-(trifluoromethyl)-1H-indazol-4-ylamino]benzonitrile] | 1 to 10 | 1 to 10
4 | O=S(=O)(c1ccc(Oc2cccc(F)c2)c2cn[nH]c12)C(F)(F)F [Example 31, 4-(3-Fluorophenoxy)-7-(trifluoromethylsulfonyl)-1H-indazole] | 1 to 10 | 1 to 10
5 | O=S(=O)(c1ccc(NC2CC(F)(F)C2)c2cn[nH]c12)C(F)(F)F [Example 57, N-(3,3-Difluorocyclobutyl)-7-trifluoromethanesulfonyl-1H-indazol-4-amine] | > 10 | 1 to 10
6 | O=S(=O)(c1ccc(Nc2cc(F)cc(Cl)c2)c2cn[nH]c12)C(F)(F)F [Example 47, (3-Chloro-5-fluorophenyl)[7-(trifluoromethylsulfonyl)-1H-indazol-4-yl]amine] | > 10 | 1 to 10
7 | N#Cc1cc(F)cc(Oc2ccc(S(=O)(=O)C(F)F)c3[nH]ncc23)c1 [Example 12, 5-[7-(Difluoromethylsulfonyl)-1H-indazol-4-yloxy]-3-fluorobenzonitrile] | 1 to 10 | 1 to 10
8 | O=S(=O)(c1ccc(N2CCCc3cc(F)cc(F)c32)c2cn[nH]c12)C(F)(F)F [Example 49, 6,8-Difluoro-1-(7-trifluoromethanesulfonyl-1H-indazol-4-yl)-1,2,3,4-tetrahydroquinoline] | > 10 | 
9 | CS(=O)(=O)c1ccc(Oc2ccc(Cl)c(Cl)c2)c2cn[nH]c12 [Example 6, 4-(3,4-Dichlorophenoxy)-7-methanesulfonyl-1H-indazole] | 1 to 10 | 
10 | O=S(=O)(c1ccc(Oc2cccc(C(F)(F)F)c2)c2cn[nH]c12)C(F)(F)F [Example 32, 4-[3-(Trifluoromethyl)phenoxy]-7-(trifluoromethylsulfonyl)-1H-indazole] | > 10 | > 10
11 | O=S(=O)(c1ccc(Oc2cc(F)c(F)c(F)c2)c2cn[nH]c12)C(F)(F)F [Example 30, 7-(Trifluoromethylsulfonyl)-4-(3,4,5-trifluorophenoxy)-1H-indazole] | > 10 | 1 to 10
12 | Cc1cc(C#N)cc(Oc2ccc(S(=O)(=O)C(F)(F)F)c3[nH]ncc23)c1 [Example 28, 3-Methyl-5-[[7-(trifluoromethylsulfonyl)-1H-indazol-4-yl]oxy]benzonitrile] | 1 to 10 | 1 to 10
13 | N#Cc1cc(F)cc(Oc2ccc(S(=O)(=O)C(F)(F)F)c3[nH]nc(Cl)c23)c1 [Example 61, 3-[(3-Chloro-7-trifluoromethanesulfonyl-1H-indazol-4-yl)oxy]-5-fluorobenzonitrile] | > 10 | < 1
14 | O=S(=O)(c1ccc(NCc2cc(Cl)cc(Cl)c2)c2cn[nH]c12)C(F)(F)F [Example 56, N-[(3,5-dichlorophenyl)methyl]-7-(trifluoromethylsulfonyl)-1H-indazol-4-amine] | > 10 | > 10
15 | O=S(=O)(c1ccc(NCc2ccc(F)cc2Cl)c2cn[nH]c12)C(F)(F)F [Example 54, N-[(2-chloro-4-fluorophenyl)methyl]-7-(trifluoromethylsulfonyl)-1H-indazol-4-amine] | > 10 | > 10
16 | N#Cc1cc(Oc2ccc(S(=O)(=O)C(F)(F)F)c3[nH]ncc23)ccc1Cl [Example 35, 2-Chloro-5-[[7-(trifluoromethylsulfonyl)-1H-indazol-4-yl]oxy]benzonitrile] | > 10 | 1 to 10

Row | SMILES | IC50 (HIF-2α) [µM] | IC50 [1] [µM]
17 | N#Cc1cc(F)cc(Oc2c(F)cc(S(=O)(=O)C(F)(F)F)c3[nH]ncc23)c1 [Example 64, 3-Fluoro-5-[(5-fluoro-7-trifluoromethanesulfonyl-1H-indazol-4-yl)oxy]benzonitrile] | > 10 | 1 to 10
18 | Cc1cncc(Oc2ccc(S(=O)(=O)C(F)(F)F)c3[nH]ncc23)n1 [Example 21, 4-[(6-Methylpyrazin-2-yl)oxy]-7-trifluoromethanesulfonyl-1H-indazole] | > 10 | > 10
19 | CS(=O)(=O)c1ccc(Oc2cc(F)cc(C#N)c2)c2c(CO)n[nH]c12 [Example 11, 3-Fluoro-5-{[3-(hydroxymethyl)-7-methanesulfonyl-1H-indazol-4-yl]oxy}benzonitrile] | 1 to 10 | > 10
20 | N#Cc1cc(Cl)cc(Oc2ccc(S(=O)(=O)C(F)(F)F)c3[nH]ncc23)c1 [Example 27, 3-Chloro-5-[[7-(trifluoromethylsulfonyl)-1H-indazol-4-yl]oxy]benzonitrile] | 1 to 10 | < 1
21 | O=S(=O)(c1ccc(Oc2cccc(Cl)c2)c2c(Cl)n[nH]c12)C(F)(F)F [Example 63, 3-Chloro-4-(m-chlorophenoxy)-7-(trifluoromethylsulfonyl)-1H-indazole] | > 10 | 1 to 10
22 | Fc1cc(Cl)cc(Oc2cnc(C(F)(F)F)c3[nH]ncc23)c1 [Example 69, 4-(3-Chloro-5-fluorophenoxy)-7-(trifluoromethyl)-1H-pyrazolo[3,4-c]pyridine] | 1 to 10 | 1 to 10
23 | O=S(=O)(c1ccc(Oc2cc(F)cc(F)c2)c2cn[nH]c12)C(F)(F)F [Example 25, 4-(3,5-Difluorophenoxy)-7-trifluoromethanesulfonyl-1H-indazole] | < 1 | < 1
24 | O=S(=O)(c1ccc(Oc2ccc(F)cc2)c2cn[nH]c12)C(F)(F)F [Example 18, 4-(p-Fluorophenoxy)-7-(trifluoromethylsulfonyl)-1H-indazole] | 1 to 10 | > 10
25 | N#Cc1cc(C#N)cc(Oc2ccc(S(=O)(=O)C(F)(F)F)c3[nH]ncc23)c1 [Example 22, 5-[(7-Trifluoromethanesulfonyl-1H-indazol-4-yl)oxy]benzene-1,3-dicarbonitrile] |  | 1 to 10
26 | N#Cc1ccc(Cl)c(Oc2ccc(S(=O)(=O)C(F)(F)F)c3[nH]ncc23)c1 [Example 43, 4-Chloro-3-[(7-trifluoromethanesulfonyl-1H-indazol-4-yl)oxy]benzonitrile] | 1 to 10 | 
27 | CS(=O)(=O)c1ccc(Oc2cccc(Cl)c2)c2cn[nH]c12 [Example 5, 4-(3-Chlorophenoxy)-7-methanesulfonyl-1H-indazole] | 1 to 10 | 
28 | CS(=O)(=O)c1ccc(Oc2cc(F)cc(C#N)c2)c2cn[nH]c12 [Example 3, 3-Fluoro-5-[(7-methanesulfonyl-1H-indazol-4-yl)oxy]benzonitrile] | > 10 | 
29 | N#Cc1cc(F)cc(Nc2ncnc3[nH]ncc23)c1 [Example 67, 3-Fluoro-5-({1H-pyrazolo[3,4-d]pyrimidin-4-yl}amino)benzonitrile] | 1 to 10 | 
30 | N#Cc1cc(F)cc(Nc2cncc3[nH]ncc23)c1 [Example 66, 3-Fluoro-5-({1H-pyrazolo[3,4-c]pyridin-4-yl}amino)benzonitrile] | 1 to 10 | 
31 | CS(=O)(=O)c1ccc(Nc2cc(F)cc(C#N)c2)c2cn[nH]c12 [Example 1, 3-Fluoro-5-[(7-methanesulfonyl-1H-indazol-4-yl)amino]benzonitrile] | 1 to 10 | 
32 | N#Cc1cc(F)cc(Nc2cc(Cl)cc3[nH]ncc23)c1 [Example 65, 3-[(6-Chloro-1H-indazol-4-yl)amino]-5-florobenzonitrile] | 1 to 10 | 
